{"source": "patent US10874727B2", "about": "“Inducible regulatory t-cell generation for hematopoietic transplants” (The Trustees of the University of Pennsylvania, priority 2008, dated 2020)", "key": {"CD4+25−45RA+ T cells [1]": {"tested_on": "CD4+25−45RA+ T cells", "assay": "iTreg generation: FoxP3 flow phenotype of cultured CD4+25−45RA+ T cells at day 10", "assay_type": "cell-based, human", "conditions": "for iTreg generation / induction of CD4+127loFoxP3hi cells by day 10: single agents: rapa, TGFb 10 ng/ml, SAHA 300 nM, TSA 100 nM", "experimental": "(§1) For initial studies, to ensure inducible Treg (iTreg) conversion was being examined and not natural Treg (nTreg) expansion, CD4^+25^−45 RA^+ T cells are isolated from ficolled buffy coat cells by negative selection (CD8, CD11b, CD16, CD19, CD36, CD56 CD25) followed by CD45RA positive selection using beads. Cells are cultured in X-Vivo-15 or trypt-free media, as indicated, along with human ABneg serum (10%) and L-glutamine. rIL-2 (300 U/ml: Chiron) is added on day 2 and with re-feeds.\nIn order to assay for the presence of non-Tregs and nTregs, multi-color phenotyping can be employed pre- and post-isolation and on days 7, 10, 14, 21 for both non-Tregs and nTregs (CD4/25/127lo/FoxP3) for co-expression of adhesion molecules (e.g., CD62L; LFA-1), chemokine receptors (e.g., CCR4-9; CXCR3), and cytokines (IL2, IL17, TNFa, IL10). Phosphorylated-Stat5 and p-Akt can be analyzed at 15′ post-stimulation with PMA/ionomycin.\n(§2) To simulate IDO effects, cells were cultured in low tryp+KYN using KYN at 10 μM+trypt at 1 μM until day 7 then 5 μM trypt beyond day 7 to support expansion after iTreg “imprinting” has occurred. Decitibine was added at 1-5 μM (final) to day 3 cultures. Cultures were expanded with anti-CD3/28 mAb-loaded, irradiated KT32 (FcR+) cells. Anti-CD3/28 beads (3 beads:1 cell) or 100 Gy irradiated, anti-CD3 (OKT3) loaded KT64/86 cells (1 KT cell:2 CD4^+25^− T cells) are added on day 0. Cell density is maintained at 0.2-2×10^6/ml by 50% vol/vol re-feeds. By 10 days, diluent cultured cells expanded about 30-fold, decibine about 11 fold and low tryp/KYN about 5-fold; CD4+CD127loFoxP3hi cells were 1%, 16%, and 13%, respectively (FIG. 4; upper, FoxP3hi; lower box, FoxP3int,lo). […] In studies using umbilical cord blood (UCB) nTregs, day 11 cultures re-stimulated with KT cells expanded an additional 20-fold compared to no re-stimulation.\n(§3) The next set of experiments were designed to compare the effects of a HDACi in a bead- or cell-based artificial antigen-presenting cell system (KT32) for generating iTregs (FIGS. 5B and 5C). Purified human naïve T cells (CD4^+, CD25^−, CD45RA^+) were stimulated with KT32 (K562 engineered to express human CD32) loaded with anti-CD3 and CD28 antibodies. The cells were cultured for 3 days and SAHA added a single time at the indicated concentrations, and analyzed 7 days later (day 10) for Foxp3 expression (FIG. 5B). Purified human naïve T cells (CD4^+, CD25^−, CD45RA^+) were stimulated with KT32 (K562 engineered to express human CD32) loaded with anti-CD3 and CD28 antibodies. The cells were cultured for 3 days and Trichostatin A added a single time at the indicated concentrations, and analyzed 7 days later (day 10) for Foxp3 expression.\nThe next set of experiments were designed to compare the effects of the combination of an HDACi with a demethylating agent in a bead- and cell-based antigen-presenting cell system (FIG. 5F). Purified human naïve T cells (CD4^+, CD25^−, CD45RA^+) were stimulated with clinical grade anti-CD3/28 beads or with KT32 (K562 engineered to express human CD32) loaded with anti-CD3 and CD28 antibodies. On day 3 of culture, the specified HDACi were added. On day 7, a single dose of Decitibine (1 μM) was added and cultures analyzed 3 days later (day 10) for Foxp3 expression."}, "CD4+25−45RA+ T cells [2]": {"tested_on": "CD4+25−45RA+ T cells", "assay": "Expansion of CD4+25−45RA+ T cells in bead- or cell-based artificial APC cultures", "set-up": "species or system human", "experimental": "as §1, §2\nas §3, with “Purified human naïve T cells (CD4^+, CD25^−, CD45RA^+) were stimulated with KT32 (K562 engineered to express human CD32) loaded with anti-CD3 and CD28 antibodies.” left out\nThe next set of experiments were designed to compare the effects of a demethylating agent in a bead- or cell-based artificial antigen-presenting cell system (KT32) for generating iTregs (FIGS. 5D and 5E). […] The cells were cultured for 3 days and Decitibine added a single time at the indicated concentrations, and analyzed 7 days later (day 10) for Foxp3 expression (FIG. 5D). […] The cells were cultured for 3 days and 5-Azacytidine added a single time at the indicated concentrations, and analyzed 7 days later (day 10) for Foxp3 expression (FIG. 5E).\nThe next set of experiments were designed to compare the effects of the combination of an HDACi with a demethylating agent in a bead- and cell-based antigen-presenting cell system (FIG. 5F). […] On day 7, a single dose of Decitibine (1 μM) was added and cultures analyzed 3 days later (day 10) for Foxp3 expression."}, "PBMNCs": {"tested_on": "PBMNCs", "assay": "Suppression by expanded Tregs (ratios of Tregs to PBMNCs)", "assay_type": "cell-based, human", "conditions": "TGFβ 10 ng/ml added to the cells", "from_the_text": "(§4) Adding rapa, which is an mTOR inhibitor, (labeled as +) reduced mean expansion rates by 30-fold with beads resulting in ≤10-fold mean expansion rates by day 14."}, "CD4+25−45RA+ cells": {"tested_on": "CD4+25−45RA+ cells", "assay": "Foxp3 expression at day 14 after Decitibine ± TGFβ induction and re-stimulation with anti-CD3 loaded KT64/86", "assay_type": "cell-based, human", "conditions": "for Foxp3 expression: Decitibine 5 μM day 7 ± TGFβ 10 ng/ml day 0, re-stimulated day 7", "experimental": "The next set of experiments was designed to determine whether re-stimulation of iTreg increases the percentage of Foxp3++ cells. nTreg (CD4^+25^++) and CD4^+25^−45 RA^+ cells were purified from peripheral blood (PB) using magnetic beads and the cells were stimulated with anti-CD3 loaded KT64/86 cells (K562 cells modified to express an Fc receptor CD64 and CD86). nTreg were cultured in the presence of IL-2 (300 U/ml) and Rapamycin (109 nM) while CD4^+25^− cells were cultured with IL-2 alone, or were induced to become Treg by the addition of Decitibine (5 μM at day 7) and Rapamycin (109 nM at day 7). Portions of the CD4^+25^−45 RA^+ and Decitibine iTreg cultures were also re-stimulated on day 7 with anti-CD3 loaded KT64/86 cells. After a total of 14 days, cells were harvested and the expression of CD4, CD25, and Foxp3 was measured using flow cytometry. FIG. 6 summarizes the results in the context of percentage of CD4+ gated cells expressing low (Foxp3+) or high (Foxp3++) levels of Foxp3.\nThe next set of experiments was designed to determine whether TGFβ could synergize the effects of Decitibine to induce Foxp3 expression in the cells. Briefly, nTreg (CD4^+25^++) and CD4^+25^−45 RA^+ cells were purified from peripheral blood using magnetic beads and stimulated with anti-CD3 loaded KT64/86 cells. nTreg were cultured in the presence of IL-2 (300 U/ml) and Rapamycin (109 nM) while CD4^+25^− cells were cultured with IL-2 alone, or were induced to become Treg by the addition of Decitibine (5 μM at day 7) in the presence or absence of TGFβ (10 ng/ml, day 0). All samples were re-stimulated on day 7 with anti-CD3 loaded KT64/86 cells. After a total of 14 days, cells were harvested and expression of CD4, CD25, and Foxp3 was measured using flow cytometry."}, "CD8+ T cell": {"tested_on": "CD8+ T cell", "assay": "iTreg suppression of CD8+ T cell proliferation by CFSE dye-dilution", "assay_type": "cell-based, human", "conditions": "1:16 ratio", "experimental": "as §2\nIn vitro potency of expanded iTregs vs nTregs may be assayed for suppression in MLR and anti-CD3 mAb driven, CD8+ CFSE T cell proliferation assays."}, "CD4+25− T cells": {"tested_on": "CD4+25− T cells", "assay": "iTreg generation from CD4+25− T cells cultured with allogeneic TLR9 activated pDCs", "assay_type": "cell-based, human", "conditions": "IDO inhibition by 1MT in pDC cultures", "from_the_text": "(§5) CD4^+25^− T cells, when cultured with allogeneic TLR9 activated allogeneic plasmacytoid dendritic cells (pDCs), but not B-cells, lead to the generation of iTregs, CD4^+25^+FoxP3^+ suppressor cells (FIG. 2). It was also observed that iTregs (closed), but not T cells primed to TLR activated B cells (open squares), were potently suppressive of a naïve MLR culture (x-axis are x 104; MLR used 105 naïve T cells; FIG. 3). […] Since IDO catabolizes tryptophan into kynurenines (KYN), it is believed that iTregs can be generated in B cell cultures using KYN."}, "naïve MLR culture": {"tested_on": "naïve MLR culture", "assay": "MLR suppression by iTregs generated in B cell cultures using KYN", "assay_type": "cell-based, human", "conditions": "KYN added to allogeneic B cell cultures (50 μM elsewhere in the source); not blocked by 1MT", "from_the_text": "as §5\nIt has been shown that CD4^+25^− T-cells exposed to allogeneic TLR9 activated plasmacytoid dendritic cells (pDCs), but not B-cells, leads to the generation of iTregs (Moseman et al., 2004, J Immunol 173:4433-42), CD4^+25^+FoxP3^+ suppressor cells, a process dependent upon the enzyme indoleamine 2,3-dioxygenase (IDO) that catabolizes tryptophan. […] Because obtaining high numbers of non-malignant B-cells or pDCs from leukemia/lymphoma patients would be difficult, low trypt/KYN conditions in an artificial antigen-presenting cell expansion system was examined. In considering strategies for iTreg generation, experiments were designed to focus on molecular features preferentially associated with nTregs vs naïve or T effector cells. […]"}, "CD4+25+ Tregs": {"tested_on": "CD4+25+ Tregs", "assay": "Expansion of CD4+25+ Tregs with anti-CD3/28 microbeads or KT64/86 cells plus IL-2, with or without rapa", "assay_type": "cell-based, human", "from_the_text": "as §4"}}, "note": "Entries after “also recorded” stand apart in the source; their conditions may differ.", "data": [{"compound": "CC(/C=C/C(=O)NO)=C\\[C@@H](C)C(=O)c1ccc(N(C)C)cc1", "note": "[TSA, trichostatin A]", "values": [{"measurement": "CD4+127loFoxP3hi", "setting": "CD4+25−45RA+ T cells [1]; bead expanded cultures, day 10, diluent 1.7", "value": 1.6, "unit": "%"}, {"measurement": "FoxP3int/lo", "setting": "CD4+25−45RA+ T cells [1]; bead expanded cultures, day 10, diluent 21.8%", "value": 15.4, "unit": "%"}, {"measurement": "iTreg generation / induction of CD4+127loFoxP3hi cells by day 10", "setting": "CD4+25−45RA+ T cells [1]", "value": "No iTreg generation"}, {"measurement": "Day 10 expansions", "setting": "CD4+25−45RA+ T cells [2]; cell-based cultures, HDACi day 3, decitibine day 7, diluent 20-fold", "value": 15, "unit": "fold"}]}, {"compound": "transforming growth factor-beta [TGFβ]", "values": [{"measurement": "suppression", "setting": "PBMNCs", "value": "did not increase suppression"}, {"measurement": "Foxp3 expression", "setting": "CD4+25−45RA+ cells", "value": "synergizes with Decitibine to induce Foxp3 expression"}]}, {"compound": "O=C(CCCCCCC(=O)Nc1ccccc1)NO", "note": "[SAHA, suberoylanilide hydroxamic acid]", "values": [{"measurement": "iTreg generation / induction of CD4+127loFoxP3hi cells by day 10", "setting": "CD4+25−45RA+ T cells [1]", "value": "did not result in iTregs; also recorded: No iTreg generation"}, {"measurement": "T cell expansion", "setting": "CD4+25−45RA+ T cells [2]; SAHA 300 nM on day 3", "value": "did not inhibit T cell expansion"}, {"measurement": "toxicity in T cell culture", "setting": "CD4+25−45RA+ T cells [2]; SAHA 100 μM on day 0", "value": "toxic"}]}, {"compound": "Nc1ncn([C@H]2C[C@H](O)[C@@H](CO)O2)c(=O)n1", "note": "[decitibine, 5-aza-2′-deoxycitidine]", "values": [{"measurement": "CD4+CD127loFoxP3hi cells", "setting": "CD4+25−45RA+ T cells [1]; by 10 days, KT32 cultures, decitibine 1-5 μM day 3 or low tryp+KYN", "value": 16, "unit": "%"}, {"measurement": "iTreg suppression of CD8+ T cell proliferation", "setting": "CD8+ T cell", "value": 41, "unit": "%"}, {"measurement": "percentage of Foxp3++ cells", "setting": "CD4+25−45RA+ cells; Decitibine 5 μM and Rapamycin 109 nM at day 7, re-stimulation on day 7", "value": "significantly increased"}, {"measurement": "Foxp3 expression", "setting": "CD4+25−45RA+ cells", "value": "some Foxp3 expression"}, {"measurement": "expansion by 10 days", "setting": "CD4+25−45RA+ T cells [2]; anti-CD3/28 mAb-loaded KT32 cells, decitibine 1-5 μM day 3, KYN 10 μM + trypt 1 μM until day 7 then 5 μM", "value": "about 11 fold"}]}, {"compound": "Cn1cc(C[C@H](N)C(=O)O)c2ccccc21", "note": "[1MT, 1-methyl-tryptophan]", "values": [{"measurement": "iTreg conversion", "setting": "CD4+25− T cells", "value": "prevented iTreg conversion"}]}, {"compound": "Nc1ccccc1C(=O)CC(N)C(=O)O", "note": "(stereo not shown) [KYN, kynurenine]", "values": [{"measurement": "MLR suppression / suppressive iTregs", "setting": "naïve MLR culture", "value": "potent MLR suppression; also recorded: potently suppressive iTregs"}]}, {"compound": "CO[C@H]1C[C@@H]2CC[C@@H](C)[C@@](O)(O2)C(=O)C(=O)N2CCCC[C@H]2C(=O)O[C@H]([C@H](C)C[C@@H]2CC[C@@H](O)[C@H](OC)C2)CC(=O)[C@H](C)/C=C(\\C)[C@@H](O)[C@@H](OC)C(=O)[C@H](C)C[C@H](C)/C=C/C=C/C=C/1C", "note": "[rapa, rapamycin]", "values": [{"measurement": "reduction of mean expansion", "setting": "CD4+25+ Tregs; Rapa added to KT64/86 driven cultures", "value": 10, "unit": "fold"}, {"measurement": "reduction of mean expansion rates", "setting": "CD4+25+ Tregs; rapa added, anti-CD3/28 beads", "value": 30, "unit": "fold"}, {"measurement": "mean expansion rates by day 14", "setting": "CD4+25+ Tregs; rapa added, anti-CD3/28 beads, day 14", "value": "≤ 10", "unit": "fold"}]}]}
